What was measured:
[1] = system: extrapyramidal side effects, e.g. dyskinesias and dystonias; assay: extrapyramidal side effects in the monkey; format: in vivo; conditions: at effective antipsychotic doses
[2] = system: avoidance behaviour in monkeys; assay: conditioned avoidance behaviour (lever press to avoid foot shock), monkeys; format: in vivo, squirrel monkeys; conditions: Primates, oral, read-out: oral dose that disrupts avoidance behaviour (decreases avoidance responses)
Description: (§1) Each lever press postpones the shock for 30 seconds. Whenever the animal fails to press the lever once within said period, brief (0.5 sec.) shocks are delivered at 15 second intervals until the animal again presses the lever. Under control conditions the animals press the lever at a moderately steady rate and seldom receive more than five or six shocks during a 25-minute (rats) and up to 4-hour experimental session. Said compounds evaluated for neuroleptic activity, are administered to the animals 30, 90, 210 minutes prior to the experimental session and block the learned conditioned avoidance behaviour, manifested by a decrease in avoidance responding with a marked increase in shocks taken by the animal. Both the avoidance responses and failures (shocks received) are recorded separately for evaluation.
(§2) Indicative of the antipsychotic utility of the compounds of this invention, e.g. the compound of example 1, namely 2-methyl-5-(4-methyl-1-piperazinyl)-11H-1,2,4-triazolo[2,3-c][1,3]benzodiazepine maleate, disrupts avoidance behaviour, e.g. decreases avoidance responses in rats and monkeys at an oral dose of about 1.0 mg/kg or lower.

[3] = biological target: histamine activation of adenylate cyclase; assay: inhibition of histamine activation of adenylate cyclase in vesicles from guinea pig cerebral cortex; format: biochemical; conditions: 50 micromolar histamine, 3H-cyclic AMP synthesis
Description: Finally, said antihistaminic properties can be shown in vitro, e.g., according to Chasin et al., J. Neurochem. 22, 1031 (1974). Vesicles from a cell free preparation of guinea pig cerebral cortex are preincubated with ^3 H-adenine to form endogenous ^3 H-adenosine triphosphate. The vesicles are then incubated with 50 micromolar histamine to activate ^3 H-cyclic adenosine monophosphate synthesis in the absence or presence of the test compound at a concentration between 0.01 and 100 micromolar. When said compound is active, it inhibits the histamine activation of adenylate cyclase. The IC50 represents the concentration at which histamine activation is inhibited by 50%.

[4] = system: avoidance behaviour in rats; assay: conditioned avoidance behaviour (lever press to avoid foot shock), rats; format: in vivo; conditions: Rattus norvegicus, oral, read-out: oral dose that disrupts avoidance behaviour (decreases avoidance responses)
Description: as §1, §2

Cc1nc2n(n1)C(N1CCN(C)CC1)=Nc1ccccc1C2.O=C(O)/C=C\C(=O)O [Example 1, 2-methyl-5-(4-methyl-1-piperazinyl)-11H-1,2,4-triazolo[2,3-c][1,3]-benzodiazepine monomaleate]
extrapyramidal side effects, e.g. dyskinesias and dystonias [1]: essentially free of extrapyramidal side effects | minimal effective dose [2]: ≤ 1 mg/kg | IC50 [3]: ~300 nM | minimal effective dose [4]: ≤ 1 mg/kg

Reference: patent publication US4595535A, “Diazacycloalkyl-1,2,4-triazolo[2,3-c][1,3]benzodiazepines useful as neuroleptic and/or antihistaminic agents” (Ciba-Geigy Corporation, priority 1984, dated 1986)
